Results as given in paper PMC4753412, “Involvement of an octose ketoreductase and two acyltransferases in the biosynthesis of paulomycins” (Scientific Reports, 2016).
≈ marks a conversion by molar mass, not a printed value. Read-outs that look alike come from different tables or passages of the source.

How the values were obtained:
Assay in all cases: microbe, parasite or virus in culture
Design in all cases: agar dilution antibacterial assay, minimum inhibitory concentration
Bacillus subtilis = settings: 24 h
Procedure: (§1) Antibacterial activity was determined by agar dilution method according to the method as described. […], […], Staphylococcus epidermidis, Staphylococcus aureus and Bacillus subtilis were used as the tested bacteria. After incubation for 24 h at 37 °C, the MICs were calculated (Table S3).

S. aureus = settings: Staphylococcus aureus, 24 h
Procedure: as §1

S. epidermidis = settings: Staphylococcus epidermidis, 24 h
Procedure: as §1

S. pneumoniae = settings: Streptococcus pneumoniae, 24 h
Procedure: as §1

S. pyogenes = settings: Streptococcus pyogenes, 24 h
Procedure: as §1

CC=C(N=C=S)C(=O)OC1C(COC(C)=O)OC(C2(O)CC(=O)C(N)=C(C(=O)O)C2=O)C(O)C1OC1CC(OC)C(O)(C(C)OC(=O)C(C)CC)C(C)O1 (stereo not shown) [compound 3, 3]
MIC (Bacillus subtilis; read-out: MIC 3): 0.1 µg/mL (≈ 0.127 µM) | MIC (S. aureus; read-out: MIC 3): 0.1 µg/mL (≈ 0.127 µM) | MIC (S. epidermidis; read-out: MIC 3): 0.05 µg/mL (≈ 0.0635 µM) | MIC (S. pneumoniae; read-out: MIC 3): 0.05 µg/mL (≈ 0.0635 µM) | MIC (S. pyogenes; read-out: MIC 3): 0.025 µg/mL (≈ 0.0318 µM)

C/C=C(\N=C=S)C(=O)O[C@H]1[C@@H](O[C@H]2C[C@H](OC)[C@@](O)([C@H](C)OC(=O)C(C)C)[C@H](C)O2)[C@@H](O)[C@H]([C@@]2(O)CC(=O)C(=N)C(C(=O)O)=C2O)O[C@@H]1COC(C)=O [compound 4, paulomycin B]
MIC (Bacillus subtilis; read-out: MIC 4): 0.1 µg/mL (≈ 0.129 µM) | MIC (S. aureus; read-out: MIC 4): 0.1 µg/mL (≈ 0.129 µM) | MIC (S. epidermidis; read-out: MIC 4): 0.05 µg/mL (≈ 0.0647 µM) | MIC (S. pneumoniae; read-out: MIC 4): 0.05 µg/mL (≈ 0.0647 µM) | MIC (S. pyogenes; read-out: MIC 4): 0.025 µg/mL (≈ 0.0324 µM)

CC=C(N=C=S)C(=O)OCC1OC(C2(O)CC(=O)C(N)=C(C(=O)O)C2=O)C(O)C(OC2CC(OC)C(O)(C(C)OC(=O)C(C)C)C(C)O2)C1O (stereo not shown) [compound 8, 8]
MIC (Bacillus subtilis; read-out: MIC 8): > 100 µg/mL | MIC (S. aureus; read-out: MIC 8): > 100 µg/mL | MIC (S. epidermidis; read-out: MIC 8): > 100 µg/mL | MIC (S. pneumoniae; read-out: MIC 8): > 100 µg/mL | MIC (S. pyogenes; read-out: MIC 8): > 50 µg/mL

CC=C(N=C=S)C(=O)OCC1OC(C2(O)CC(=O)C(N)=C(C(=O)O)C2=O)C(O)C(OC2CC(OC)C(O)(C(C)OC(=O)C(C)CC)C(C)O2)C1O (stereo not shown) [compound 9, 9]
MIC (Bacillus subtilis; read-out: MIC 9): > 100 µg/mL | MIC (S. aureus; read-out: MIC 9): > 100 µg/mL | MIC (S. epidermidis; read-out: MIC 9): > 100 µg/mL | MIC (S. pneumoniae; read-out: MIC 9): > 100 µg/mL | MIC (S. pyogenes; read-out: MIC 9): > 50 µg/mL

CC=C(N=C=S)C(=O)OCC1OC(C2(O)CC(=O)C(N)=C(C(=O)O)C2=O)C(O)C(OC2CC(OC)C(O)(C(C)=O)C(C)O2)C1O (stereo not shown) [compound 10, 10]
MIC (Bacillus subtilis; read-out: MIC 10): > 100 µg/mL | MIC (S. aureus; read-out: MIC 10): > 100 µg/mL | MIC (S. epidermidis; read-out: MIC 10): > 100 µg/mL | MIC (S. pneumoniae; read-out: MIC 10): > 100 µg/mL | MIC (S. pyogenes; read-out: MIC 10): > 100 µg/mL
